We go through seven compounds from US20230286973A1, “PROTEIN SECRETION INHIBITORS” (KEZAR LIFE SCIENCES, priority 2020, published 2023).

Series [1] has as its system PD1-ss+10aa/Gaussia Luciferase. Briefly: Dox-Induced PD1-ss-Gluc Assay. Format: cell-based. Particulars: 24 hr Dox induction; 293FRT/TO cells; read-out: 24 hr Dox Inducible PD1ssGluc 293FRT/TO: Mean IC50. In outline:
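Flp-In 293 T-REx cells stably carrying a doxycycline-inducible Gaussia luciferase fused to the PD1 signal sequence plus 10 aa were plated the day before. Compound dilutions in DMSO/media containing doxycycline were then added and incubated at 37 °C, 5% CO2. Data for undefined stereochemistry refer to stereoisomer mixtures.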

The subject of series [2] is TNFα-FL/Gaussia Luciferase. The series can be described thus: Dox Induced TNFα-FL-Gluc Assay. Format: cell-based. Particulars: for IC50: 24 hr Dox induction, 293FRT/TO cells, read-out: 24 hr Dox Inducible TNFaFLGluc 293FRT/TO: Mean IC50; for 24 hr Dox Inducible TNFaFLGluc 293FRT/TO: TNF/PD1: ratio of TNFaFLGluc IC50 to PD1ssGluc IC50. In outline: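 Flp-In 293 T-REx cells stably expressing full-length TNFα (aa 1-233) fused at its C-terminus to Gaussia luciferase under tetracycline-regulated control were plated the day before assay. Compound dilutions in DMSO/media containing doxycycline were added and incubated at 37 °C, 5% CO2. Unspecified stereochemistry denotes stereoisomer mixtures.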

Series [3] relates to HER3-ss+4aa/Gaussia Luciferase. The series can be described thus: Dox-Induced Her3-ss-Gluc Assay. The conditions noted are these: 24 hr Dox induction; 293FRT/TO cells; read-out: 24 hr Dox Inducible Her3(ss + 4)Gluc 293FRT/TO: Mean IC50. It is filed as cell-based. In outline: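 Stable Flp-In 293 T-REx line expressing Gaussia luciferase fused to the HER3 signal sequence plus 4 amino acids under tetracycline-regulated (T-REx) control. Cells plated the day before, then treated with compound dilutions in DMSO/media containing doxycycline and incubated at 37° C., 5% CO2.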

For series [4], the system named is IL-2-FL/Gaussia Luciferase. The series can be described thus: Dox Induced IL2-FL-Gluc Assay. It is filed as cell-based. Particulars: for IC50: 24 hr Dox induction, 293FRT/TO cells, read-out: 24 hr Dox Inducible IL2FLGluc 293FRT/TO: Mean IC50; for 24 hr Dox Inducible IL2FLGluc 293FRT/TO: IL2/PD1: ratio of IL2FLGluc IC50 to PD1ssGluc IC50. In outline:
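Flp-In 293 T-REx cells stably carrying doxycycline-inducible full-length IL-2 (aa 1-153) fused at its C-terminus to Gaussia luciferase, selected with hygromycin and blasticidin. Cells were plated the day before, then treated with compounds in DMSO/media containing doxycycline at 37° C, 5% CO2.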

Series [5] concerns multiple myeloma cell line NCI-H929. The series can be described thus: H929 Cell Viability Assay. Particulars: Homo sapiens, NCI-H929, 48 h, NCI-H929 cells, Celltiter-Glo. It is filed as cell-based, human. In outline:
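NCI-H929 cells, resuspended in RPMI 1640 with 10% FBS and 2 mM glutamine, were treated with compound dilutions in DMSO/media and incubated 48 hours at 37° C, 5% CO2. Viability was read by CellTiter-Glo luminescence. Compounds drawn without stereochemistry were tested as stereoisomer mixtures.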
A general note: ATP-based viability assays read luminescence as a measure of living cells.

Series [6] deals with multiple myeloma cell line U266B1. Briefly: U266 Cell Viability Assay. Format: cell-based, human. Particulars: Homo sapiens, U-266, 48 h, U266B1 cells, Celltiter-Glo. The essentials: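 Cells grown in RPMI 1640 with 10% FBS, 2 mM glutamine and penicillin/streptomycin were exposed to compound dilutions in DMSO/media for 48 hours at 37° C., 5% CO2. Viability was read by CellTiter-Glo luminescence. Undefined stereocentres mean data for stereoisomer mixtures.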

Series [7] is described as follows: Liver Microsome Stability Assay (rat). Particulars: rat liver microsomes, with NADPH, 1.0 uM compound. (Microsomes from liver hold many membrane-bound enzymes, among them those of drug oxidation.)
Experimental: (§1) Stability of a compound was assessed in the presence of liver microsomes from various sources—mouse, rat, monkey and human liver microsomes. 1.0 uM compound, 0.4% DMSO in 0.1 M Potassium Phosphate with 1.0 mg/mL liver microsomes, were incubated at 37° C. with or without 1 mM NADPH. The samples were quenched at 0, and 30 minutes.
Series [8] is described as follows: Liver Microsome Stability Assay (mouse). Particulars: mouse liver microsomes, with NADPH, 1.0 uM compound.
Experimental: as §1
Series [9] is described as follows: Liver Microsome Stability Assay (human). Particulars: human liver microsomes, with NADPH, 1.0 uM compound.
Experimental: as §1
The nature of series [10]: Liver Microsome Stability Assay (monkey). The conditions noted are these: monkey liver microsomes, with NADPH, 1.0 uM compound.
Experimental: as §1

Consider `CNC(=O)N1CC(Oc2ccc(N3CCC[C@@H]3c3csc(NC(=O)c4cccn4Cc4ccnc(F)c4)n3)cc2)C1` [Compound A125, (R)-1-((2-fluoropyridin-4-yl)methyl)-N-(4-(1-(4-((1-(methylcarbamoyl)azetidin-3-yl)oxy)phenyl)pyrrolidin-2-yl)thiazol-2-yl)-1H-pyrrole-2-carboxamide], for which the IC50 in series [1] was 22.5 nM; in series [2] it was 322 nM; in series [3], 28.6 nM; in series [4] it was 65 nM. Also, the “24 hr Dox Inducible TNFaFLGluc 293FRT/TO: TNF/PD1” value in series [2] was 14.3. Besides, in [4], the “24 hr Dox Inducible IL2FLGluc 293FRT/TO: IL2/PD1” value is given as 2.9. The EC50 (usually the concentration giving half of the maximal effect) in series [5] is 1210 nM; in [6], over 25000 nM. Besides, the “Liver Microsome Stability (Multiple Species): Rat - % Remaining after 30 min w/NADPH” value in series [7] is recorded as 24.9%. In series [8], the “Liver Microsome Stability (Multiple Species): Mouse - % Remaining after 30 min w/NADPH” value was 45.1%. Besides, the “Liver Microsome Stability (Multiple Species): Human - % Remaining after 30 min w/NADPH” value in series [9] amounted to 26.2%. Further, in series [10], the “Liver Microsome Stability (Multiple Species): Monkey - % Remaining after 30 min w/NADPH” value worked out at 10.1%.

As to `CC(=O)N1CCC(Oc2ccc(N3CCC[C@@H]3c3csc(NC(=O)c4cccn4Cc4ccnc(F)c4)n3)cc2C#N)CC1` [Compound A126, (R)-N-(4-(1-(4-((1-acetylpiperidin-4-yl)oxy)-3-cyanophenyl)pyrrolidin-2-yl)thiazol-2-yl)-1-((2-fluoropyridin-4-yl)methyl)-1H-pyrrole-2-carboxamide], the IC50 in [1] was found to be 59.5 nM; in series [2], 414 nM; in [3], 5.03 nM; in series [4], 72.5 nM. The “24 hr Dox Inducible TNFaFLGluc 293FRT/TO: TNF/PD1” value in [2] is reported as 6.97. Besides, the “24 hr Dox Inducible IL2FLGluc 293FRT/TO: IL2/PD1” value in series [4] came out at 1.2. The concentration giving a half-maximal response (EC50) in series [5] is 1130 nM; in series [6], over 25000 nM. The “Liver Microsome Stability (Multiple Species): Rat - % Remaining after 30 min w/NADPH” value in series [7] was found to be 0.78%. In addition, the “Liver Microsome Stability (Multiple Species): Mouse - % Remaining after 30 min w/NADPH” value in series [8] came out at 17.7%. Besides, in series [9], the “Liver Microsome Stability (Multiple Species): Human - % Remaining after 30 min w/NADPH” value is given as 1.21%. Moreover, in series [10], the “Liver Microsome Stability (Multiple Species): Monkey - % Remaining after 30 min w/NADPH” value is 0.92%.

Turning to `COCCOc1ccc(N2CCC[C@@H]2c2csc(NC(=O)c3cccn3Cc3ccnc(F)c3)n2)cc1` [Compound A127, (R)-1-((2-fluoropyridin-4-yl)methyl)-N-(4-(1-(4-(2-methoxyethoxy)phenyl)pyrrolidin-2-yl)thiazol-2-yl)-1H-pyrrole-2-carboxamide], the IC50 is 5.65 nM in [1], 107 nM in [2], 10.8 nM in series [3] and 10.1 nM in [4]. For the same compound, in [2], the “24 hr Dox Inducible TNFaFLGluc 293FRT/TO: TNF/PD1” value was 19. For the same compound, in series [4], the “24 hr Dox Inducible IL2FLGluc 293FRT/TO: IL2/PD1” value came out at 1.8. The figures for the concentration giving a half-maximal response (EC50) in series [5] and in series [6] were 278 nM and over 25000 nM, respectively. For the same compound, the “Liver Microsome Stability (Multiple Species): Rat - % Remaining after 30 min w/NADPH” value in [7] was 0.26%. In addition, the “Liver Microsome Stability (Multiple Species): Mouse - % Remaining after 30 min w/NADPH” value in [8] is 3.95%. Also, the “Liver Microsome Stability (Multiple Species): Human - % Remaining after 30 min w/NADPH” value in series [9] came out at 30.6%. Also, the “Liver Microsome Stability (Multiple Species): Monkey - % Remaining after 30 min w/NADPH” value in [10] is on record as 24.4%.

As to `CS(=O)(=O)N1CCC(Oc2ccc(N3CCC[C@@H]3c3csc(NC(=O)c4cccn4Cc4ccnc(F)c4)n3)cc2)CC1` [Compound A128, (R)-1-((2-fluoropyridin-4-yl)methyl)-N-(4-(1-(4-((1-(methylsulfonyl)piperidin-4-yl)oxy)phenyl)pyrrolidin-2-yl)thiazol-2-yl)-1H-pyrrole-2-carboxamide], the IC50 in series [1] was determined as 37.9 nM; in series [2], 495 nM; in series [3], 68.1 nM; in [4], 59.6 nM. Moreover, in series [2], the “24 hr Dox Inducible TNFaFLGluc 293FRT/TO: TNF/PD1” value was 13.1. In addition, the “24 hr Dox Inducible IL2FLGluc 293FRT/TO: IL2/PD1” value in series [4] was 1.6. In addition, the EC50 in [5] was 847 nM; in [6], over 25000 nM. Moreover, the “Liver Microsome Stability (Multiple Species): Rat - % Remaining after 30 min w/NADPH” value in series [7] was found to be 31.3%. The “Liver Microsome Stability (Multiple Species): Mouse - % Remaining after 30 min w/NADPH” value in series [8] is 25.5%. For the same compound, the “Liver Microsome Stability (Multiple Species): Human - % Remaining after 30 min w/NADPH” value in [9] was 28%. The “Liver Microsome Stability (Multiple Species): Monkey - % Remaining after 30 min w/NADPH” value in series [10] was determined as 4.62%.

For the compound `COc1cc(N2CCC[C@@H]2c2csc(NC(=O)c3cccn3Cc3ccnc(F)c3)n2)ccc1OC1CCN(C(C)=O)CC1` [Compound A129, (R)-N-(4-(1-(4-((1-acetylpiperidin-4-yl)oxy)-3-methoxyphenyl)pyrrolidin-2-yl)thiazol-2-yl)-1-((2-fluoropyridin-4-yl)methyl)-1H-pyrrole-2-carboxamide], the IC50 in series [1] turned out to be 9.58 nM; in series [2], 303 nM; in series [3], 15.5 nM; in [4] it was 21.2 nM. The “24 hr Dox Inducible TNFaFLGluc 293FRT/TO: TNF/PD1” value in [2] came out at 31.6. Also, in series [4], the “24 hr Dox Inducible IL2FLGluc 293FRT/TO: IL2/PD1” value was 2.2. Besides, the concentration giving a half-maximal response (EC50) in [5] was 398 nM; in series [6], over 25000 nM. Also, in [7], the “Liver Microsome Stability (Multiple Species): Rat - % Remaining after 30 min w/NADPH” value came out at 0.45%. In [8], the “Liver Microsome Stability (Multiple Species): Mouse - % Remaining after 30 min w/NADPH” value was 6.21%. In addition, in series [9], the “Liver Microsome Stability (Multiple Species): Human - % Remaining after 30 min w/NADPH” value is reported as 15.7%. Also, in series [10], the “Liver Microsome Stability (Multiple Species): Monkey - % Remaining after 30 min w/NADPH” value is 8.34%.

In the case of `NC(=O)N1CC(Oc2ccc(N3CCC[C@@H]3c3csc(NC(=O)c4cccn4Cc4ccnc(F)c4)n3)cc2)C1` [Compound A130, (R)-N-(4-(1-(4-((1-carbamoylazetidin-3-yl)oxy)phenyl)pyrrolidin-2-yl)thiazol-2-yl)-1-((2-fluoropyridin-4-yl)methyl)-1H-pyrrole-2-carboxamide], the IC50 in series [1] worked out at 15.8 nM; in series [2], 683 nM; in series [3], 27.8 nM; in [4] it was 65.8 nM. The “24 hr Dox Inducible TNFaFLGluc 293FRT/TO: TNF/PD1” value in series [2] is 43.1. The “24 hr Dox Inducible IL2FLGluc 293FRT/TO: IL2/PD1” value in series [4] amounted to 4.2. Moreover, the results for the 50% effective concentration (EC50) in series [5] and in [6] were 731 nM and over 25000 nM, respectively. Further, the “Liver Microsome Stability (Multiple Species): Rat - % Remaining after 30 min w/NADPH” value in series [7] stood at 52.7%. For the same compound, the “Liver Microsome Stability (Multiple Species): Mouse - % Remaining after 30 min w/NADPH” value in series [8] is 53%. The “Liver Microsome Stability (Multiple Species): Human - % Remaining after 30 min w/NADPH” value in [9] amounted to 32.5%. Further, in series [10], the “Liver Microsome Stability (Multiple Species): Monkey - % Remaining after 30 min w/NADPH” value is 25.4%.

Regarding `CN(C)C(=O)N1CC(Oc2ccc(N3CCC[C@@H]3c3csc(NC(=O)c4cccn4Cc4ccnc(F)c4)n3)cc2)C1` [Compound A131, (R)-N-(4-(1-(4-((1-(dimethylcarbamoyl)azetidin-3-yl)oxy)phenyl)pyrrolidin-2-yl)thiazol-2-yl)-1-((2-fluoropyridin-4-yl)methyl)-1H-pyrrole-2-carboxamide], the IC50 in [1] came out at 30.9 nM; in [2], 508 nM; in series [3], 48.1 nM; in series [4] it was 64.7 nM. In [2], the “24 hr Dox Inducible TNFaFLGluc 293FRT/TO: TNF/PD1” value came out at 16.4. Also, the “24 hr Dox Inducible IL2FLGluc 293FRT/TO: IL2/PD1” value in [4] was 2.1. In addition, the EC50 is 1110 nM in series [5] and over 25000 nM in [6]. In addition, the “Liver Microsome Stability (Multiple Species): Rat - % Remaining after 30 min w/NADPH” value in series [7] is 42.9%. Besides, the “Liver Microsome Stability (Multiple Species): Mouse - % Remaining after 30 min w/NADPH” value in series [8] came to 20.4%. Also, in series [9], the “Liver Microsome Stability (Multiple Species): Human - % Remaining after 30 min w/NADPH” value was 11.8%. For the same compound, the “Liver Microsome Stability (Multiple Species): Monkey - % Remaining after 30 min w/NADPH” value in [10] was determined as 6.3%.
